Test results taken from PMC10257182, “Discovery of senolytics using machine learning” (Nature Communications, 2023).
Where “and” joins values, the source holds several entries; their conditions need not be identical. Equal values may be shown once.

Tested on: senescent A549 cells (etoposide-induced)
Experiment: Nuclei count senolytic assay, therapy-induced senescence (TIS) model, senescent cells
Type: cell-based, human
Conditions: for Mean % Cell Survival / viability at 10 µM / viability at 4.68 µM / viability at 2.19 µM / viability at 1 µM / viability at 0.468 µM / viability at 0.219 µM / viability at 0.1 µM / viability at 0.0468 µM / viability at 0.0219 µM / viability at 0.01 µM: Senescent cells, mean; for viability at 10 µM / viability at 4.68 µM / viability at 2.19 µM / viability at 1 µM / viability at 0.468 µM / viability at 0.219 µM / viability at 0.1 µM / viability at 0.0468 µM / viability at 0.0219 µM / viability at 0.01 µM: A549, read-out: Mean % Cell Survival; for % Cell Survival: senescence cells, single replicate
Method: We performed a second validation of the effectiveness of our machine learning models using a different stressor. We focused on therapy-induced senescence (TIS, Supplementary Fig. 6a), where human epithelial cancerous cells (A549) were induced to become senescent by addition of etoposide. Cells were treated with 100 μM etoposide for 48 h, followed by another three days of exposure to media in standard conditions.
We performed experimental validation of the compounds with z-score > 8 (Fig. 2e). […] We employed two cellular models of senescence: one of OIS and a second one of TIS. For the OIS case, we utilised IMR90 ER:RAS cells with 4-OHT at 100 nM. […] For the TIS model, we used A549 cells with etoposide at 100 μM. The exposure of the cells to etoposide lasted 48 h, after which period the cells were cultivated for a further three days with normal media.
IMR90 (CCL-186) human foetal lung fibroblasts and A549 (CCL-185) human lung adenocarcinoma cells were obtained from the American Type Culture Collection (ATCC, Manassas, VA). The cell lines were confirmed to be mycoplasma negative (Lonza MycoAlert, cat #LT07-118). IMR90 ER:RAS is a derivative of IMR90 cells expressing a switchable version of oncogenic H-Ras[84]. IMR90 ER:RAS and A549 cells were maintained in Dulbecco’s Modified Eagle Medium (DMEM, ThermoFisher) supplemented with foetal bovine serum (10%), L-glutamine (2 mM, ThermoFisher), and antibiotic-antimycotic solution (1%, ThermoFisher) and incubated under standard tissue culture conditions (37 °C and 5% CO2). For induction of the senescent phenotype, IMR90-ER:RAS cells were cultured in hydroxytamoxifen (4-OHT) (Sigma) added media at 100 nM final concentration. IMR90 were kept in culture for over 27 passages for replicative senescence. Cells were tested for mycoplasma on a regular basis.
Cells were seeded (50 μL per well) into 384-well plates (IMR90 ER:RAS cells in Nunc Optical Bottom Polybase Microplates [#142761, Thermo Scientific, Rochester, NY] and A549 cells in CELLSTAR Cell Culture Microplates [#781091, Greiner Bio-One, Kremsmünster, Austria]). Cells were incubated under standard tissue culture conditions for 24 h before the addition of compounds. Passage 14 IMR90 ER:RAS cells were seeded at 1300 cells per well in the control condition, and at 1600 cells per well in the senescent case. Passage 34 A549 cells were seeded at 7000 cells per well in the control condition, and at 10,000 cells per well in the senescent case.
Dose response plates were prepared with a DMSO control and a 10-point […] concentration range, and added to the compounds using a D300e digital dispenser (Tecan Trading AG, Switzerland) at a final concentration of between 10 μM and 10 nM. Every screened condition was carried out in triplicate. After 72 h of incubation with exposure to the compounds, cells were fixed by the addition of an equal volume of formaldehyde (8%, 50 μL; #BP531-500, Fisher Bioreagents, Fisher Scientific, Loughborough, Leicestershire) to the existing media, incubated at room temperature (30 min), and washed three times in phosphate-buffered saline (PBS). Cells were then permeabilised in Triton-X100 (0.1%, 50 μL) and incubated at room temperature (30 min) followed by three more washes with PBS.
Cells were stained with Hoechst 33342 for nuclei count (excitation/emission wavelength at 387/447 […], DAPI channel, original concentration at 10 mg/ml, final concentration at 2 μg/ml; H1399, Molecular Probes, Eugene, OR). The staining solution was prepared in bovine serum albumin solution (10%). The staining solution was added to each well (30 μL) and incubated in the dark at room temperature (30 min), followed by three washes with PBS and no final aspiration. Plates were foil sealed.
Plates were imaged on an ImageXpress micro XLS (Molecular Devices, Eugene, OR) equipped with a robotic plate loader (Scara4, PAA, UK).

[1] = Homo sapiens, log (dose) [M] -5
[2] = Homo sapiens, log (dose) [M] -5.33
[3] = Homo sapiens, log (dose) [M] -5.66
[4] = Homo sapiens, log (dose) [M] -6
[5] = Homo sapiens, log (dose) [M] -6.33
[6] = Homo sapiens, log (dose) [M] -6.66
[7] = Homo sapiens, log (dose) [M] -7
[8] = Homo sapiens, log (dose) [M] -7.33
[9] = Homo sapiens, log (dose) [M] -7.66
[10] = Homo sapiens, log (dose) [M] -8

| Structure (SMILES) | viability at 10 µM [1] [%] | viability at 4.68 µM [2] [%] | viability at 2.19 µM [3] [%] | viability at 1 µM [4] [%] | viability at 0.468 µM [5] [%] | viability at 0.219 µM [6] [%] | viability at 0.1 µM [7] [%] | viability at 0.0468 µM [8] [%] | viability at 0.0219 µM [9] [%] | viability at 0.01 µM [10] [%] | also measured |
| --- | --- | --- | --- | --- | --- | --- | --- | --- | --- | --- | --- |
| Cc1c(NC(=O)OC[C@@H]2COCCN2)cn2ncnc(Nc3ccc4c(cnn4Cc4cccc(F)c4)c3)c12.Cl.Cl [BMS 599626 2HCL, BMS 599626 dihydrochloride] |  |  |  |  |  |  |  |  |  |  | Mean % Cell Survival (log (dose) [M] -5): 90.7857%; Mean % Cell Survival (log (dose) [M] -5.33): 83.9286%; Mean % Cell Survival (log (dose) [M] -5.66): 68.2857%; Mean % Cell Survival (log (dose) [M] -6): 92.9286%; Mean % Cell Survival (log (dose) [M] -6.33): 86.7857%; Mean % Cell Survival (log (dose) [M] -6.66): 103.929%; Mean % Cell Survival (log (dose) [M] -7): 113.571%; Mean % Cell Survival (log (dose) [M] -7.33): 119.214%; Mean % Cell Survival (log (dose) [M] -7.66): 109.286%; Mean % Cell Survival (log (dose) [M] -8): 117.714% |
| Cc1c(-c2c(F)cc(C(N)=O)c3[nH]c4c(c23)CC[C@H](C(C)(C)O)C4)cccc1-n1c(=O)c2cccc(F)c2n(C)c1=O [BMS 986142] | 77.3 | 86.4 | 85.2 | 92.7 | 94.2 | 87.5 | 100 | 95.4 | 104 | 101 |  |
| O=c1oc2c(O)c(O)cc3c(=O)oc4c(O)c(O)cc1c4c23 [Ellagic acid, ellagic acid] | 187 | 175 | 203 | 186 | 193 | 167 | 209 | 241 | 81.3 | 84.4 |  |
| CO[C@H]1C[C@@H]2CC[C@@H](C)[C@@](O)(O2)C(=O)C(=O)N2CCCC[C@H]2C(=O)O[C@H]([C@H](C)C[C@@H]2CC[C@@H](OCCO)[C@H](OC)C2)CC(=O)[C@H](C)/C=C(\C)[C@@H](O)[C@@H](OC)C(=O)[C@H](C)C[C@H](C)/C=C/C=C/C=C/1C [Everolimus, everolimus, reference compound] | 71.7 | 84.3 | 79.6 | 66.9 | 72.1 | 74.4 | 76.2 | 85.6 | 95 | 94.7 |  |
| CC(C)=CCc1c(O)cc2oc3cc(O)c(O)c(CC=C(C)C)c3c(=O)c2c1O [Gamma mangostin, gamma mangostin] |  |  |  |  |  |  |  |  |  |  | Mean % Cell Survival (log (dose) [M] -5): 104.426%; Mean % Cell Survival (log (dose) [M] -5.33): 105.938%; Mean % Cell Survival (log (dose) [M] -5.66): 108.604%; Mean % Cell Survival (log (dose) [M] -6): 101.088%; Mean % Cell Survival (log (dose) [M] -6.33): 110.065%; Mean % Cell Survival (log (dose) [M] -6.66): 106.259%; Mean % Cell Survival (log (dose) [M] -7): 114.559%; Mean % Cell Survival (log (dose) [M] -7.33): 114.138%; Mean % Cell Survival (log (dose) [M] -7.66): 105.957%; Mean % Cell Survival (log (dose) [M] -8): 105.108% |
| COc1cc(/C=C/C(=O)O[C@H]2CC[C@]34C[C@]35CC[C@]3(C)[C@@H]([C@H](C)CCC=C(C)C)CC[C@@]3(C)[C@@H]5CC[C@H]4C2(C)C)ccc1O [Gamma oryzanol, gamma oryzanol] | 96.8 | 100 | 105 | 106 | 107 | 105 | 114 | 126 | 61.5 | 76 |  |
| COc1cc(O)c2c(=O)cc(-c3ccc(OC)c(-c4c(O)cc(O)c5c(=O)cc(-c6ccc(O)cc6)oc45)c3)oc2c1 [Ginkgetin, ginkgetin] | 25.9 | 55.3 | 103 | 115 | 104 | 126 | 85.3 | 89.9 | 99.8 | 95.8 | IC50 (Homo sapiens, TIS model, etoposide-induced senescent A549, nuclei count, 72 h): 5.7 µM; concentration at which a senolytic effect was reached (TIS A549, Hoechst labelling, marginal or no effect on normal cells): 4.64 µM; senolytic action (in words) (experimental screen, TIS senescent A549): strong senolytic action; % Cell Survival (log (dose) [M] -5): 26.9419% and 20.9924% and 29.7526%; % Cell Survival (log (dose) [M] -5.33): 57.8726% and 51.7176% and 56.1849%; % Cell Survival (log (dose) [M] -5.66): 111.826% and 87.7863% and 107.943%; % Cell Survival (log (dose) [M] -6): 147.166% and 101.59% and 95.3776%; % Cell Survival (log (dose) [M] -6.33): 97.7607% and 104.262% and 110.807%; % Cell Survival (log (dose) [M] -6.66): 107.348% and 137.468% and 133.789%; % Cell Survival (log (dose) [M] -7): 106.298% and 85.6234% and 63.9323%; % Cell Survival (log (dose) [M] -7.33): 97.7607% and 95.0382% and 76.8229%; % Cell Survival (log (dose) [M] -7.66): 110.287% and 102.735% and 86.4583%; % Cell Survival (log (dose) [M] -8): 107.348% and 95.9288% and 84.0495% |
| Cc1cc2c(C(C)C)c(O)c(O)c(C=O)c2c(O)c1-c1c(C)cc2c(C(C)C)c(O)c(O)c(C=O)c2c1O [Gossypol, gossypol] | 110 | 146 | 166 | 126 | 74.4 | 149 | 112 | 69.1 | 107 | 117 |  |
| O=c1c(O)c(-c2ccc(O)cc2)oc2c(O)c(O)cc(O)c12 [Herbacetin, herbacetin] | 112 | 122 | 121 | 87.3 | 80.2 | 102 | 114 | 106 | 98.6 | 91.8 |  |
| O=c1c(O)c(-c2ccc(O)cc2O)oc2cc(O)cc(O)c12 [Morin, morin] | 87.9 | 93.5 | 59.5 | 67.1 | 88.2 | 69.3 | 84.2 | 54.5 | 87.7 | 95.1 |  |
